The supplement of paper PMC10627819

Legend:
[1] = tested on: S. aureus Newman; experiment: Bliss interaction score (quartile over a dose matrix) (fitness difference); higher = more antagonism (negative = synergy)
Summary of the method: (§1)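 Fitness here means normalised growth, inferred for single drugs from the combination data. Growth was OD595 at entry into stationary phase, divided by the plate's robust no-drug mean and capped at 1. The Bliss score is observed minus expected fitness, with the expectation being the product, and its quartiles span technical, biological and donor/recipient replicates.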

[2] = tested on: B. subtilis 168; experiment: as above
Summary of the method: as §1

[3] = tested on: S. pneumoniae D39V; experiment: as above
Summary of the method: as §1

[4] = tested on: S. aureus DSM 20231; experiment: as above
Summary of the method: as §1

[5] = tested on: S. pneumoniae D39V; experiment: fitness (endpoint OD595 vs no drug) (fraction); higher = more growth
Summary of the method: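 With the first reading as background, OD595 was measured every 30 min for 14 h in 384-well plates kept at 37 °C and inoculated at OD595 0.01. TSB, LB Lennox or CY was the medium. Fitness is the optical density at the transition into stationary phase divided by the robust mean of no-drug control wells, with a cap of 1.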
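For Bliss interaction score (quartile over a dose matrix) in this document: first quartile when negative (synergy) and third quartile when positive (antagonism).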
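For fitness (endpoint OD595 vs no drug) in this document: OD595 on entry to stationary phase over no-drug wells; at most 1.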

O=C1CN(/N=C/c2ccc([N+](=O)[O-])o2)C(=O)N1 [Nitrofurantoin] + CN(C)c1cc(NC(=O)CNC(C)(C)C)c(O)c2c1C[C@H]1C[C@H]3[C@H](N(C)C)C(O)=C(C(N)=O)C(=O)[C@@]3(O)C(O)=C1C2=O [Tigecycline]
Conditions	Bliss interaction score
[1]	0.0708
[2]	0.178
[3]	0.0879
[4]	0.0547

fitness, [5]
Conditions	first compound 1.285 µg/mL	first compound 2 µg/mL	first compound 2.57 µg/mL	first compound 4 µg/mL	first compound 8 µg/mL
partner 0.65 µg/mL	0.939	0.96	0.932	0.971	0.921
partner 1.3 µg/mL	0.957	0.958	0.957	0.941	0.881
partner 2.6 µg/mL	0.949	0.919	0.936	0.937	0.9

[5], first compound 5.14 µg/mL, one replicate
Conditions	fitness
partner 0.65 µg/mL	0.922
partner 1.3 µg/mL	0.92
partner 2.6 µg/mL	0.894

O=C1CN(/N=C/c2ccc([N+](=O)[O-])o2)C(=O)N1 [Nitrofurantoin] + CN(N=O)C(=O)N[C@@H](C=O)[C@@H](O)[C@H](O)[C@H](O)CO [Streptozotocin]
Conditions	Bliss interaction score
[1]	0.0906
[2]	0.0585
[3]	0.0714
[4]	-0.034

fitness, [5]
Conditions	partner 1.2 µg/mL	partner 2.4 µg/mL	partner 4.8 µg/mL
first compound 1.285 µg/mL	0.928	0.94	0.939
first compound 2.57 µg/mL	0.939	0.952	0.957

fitness, [5], one replicate
Conditions	first compound 2 µg/mL	first compound 4 µg/mL	first compound 5.14 µg/mL	first compound 8 µg/mL
partner 1.2 µg/mL	0.954	0.959	0.86	0.818
partner 2.4 µg/mL	0.961	≥ 1	0.919	0.842
partner 4.8 µg/mL	≥ 1	≥ 1	0.871	≥ 1

O=C1CN(/N=C/c2ccc([N+](=O)[O-])o2)C(=O)N1 [Nitrofurantoin] + CN[C@@H]1[C@H](O)[C@H](NC)[C@H]2O[C@@]3(O)C(=O)C[C@@H](C)O[C@H]3O[C@@H]2[C@H]1O [Spectinomycin]
Conditions	Bliss interaction score
[1]	-0.0511
[2]	-0.0552
[3]	0.0652
[4]	-0.0743

fitness, [5]
Conditions	partner 4 µg/mL	partner 8 µg/mL	partner 16 µg/mL
first compound 1.285 µg/mL	0.96	0.889	0.829
first compound 2.57 µg/mL	0.935	0.917	0.829

fitness, [5], one replicate
Conditions	first compound 2 µg/mL	first compound 4 µg/mL	first compound 5.14 µg/mL	first compound 8 µg/mL
partner 4 µg/mL	0.966	0.948	0.859	0.895
partner 8 µg/mL	0.892	0.864	0.865	0.879
partner 16 µg/mL	–	–	0.793	–

O=C1CN(/N=C/c2ccc([N+](=O)[O-])o2)C(=O)N1 [Nitrofurantoin] + CN[C@@H]1[C@H](O[C@H]2[C@H](O[C@H]3[C@H](O)[C@@H](O)[C@H](N=C(N)N)[C@@H](O)[C@@H]3N=C(N)N)O[C@@H](C)[C@]2(O)C=O)O[C@@H](CO)[C@H](O)[C@H]1O [Streptomycin]
Conditions	Bliss interaction score
[1]	-0.0496
[2]	-0.0807
[3]	0.0583
[4]	-0.0532

fitness, [5]
Conditions	first compound 1.285 µg/mL	first compound 2 µg/mL	first compound 2.57 µg/mL	first compound 4 µg/mL	first compound 8 µg/mL
partner 2 µg/mL	0.956	–	0.938	–	–
partner 4 µg/mL	0.953	0.956	0.921	0.936	0.768
partner 8 µg/mL	0.927	0.884	0.918	0.887	0.743

fitness, [5], one replicate
Conditions	first compound 2 µg/mL	first compound 4 µg/mL	first compound 5.14 µg/mL	first compound 8 µg/mL
partner 2 µg/mL	0.965	0.948	0.86	0.76
partner 4 µg/mL	–	–	0.8	–
partner 8 µg/mL	–	–	0.809	–
partner 16 µg/mL	0.743	0.753	–	0.585

O=C1CN(/N=C/c2ccc([N+](=O)[O-])o2)C(=O)N1 [Nitrofurantoin] + CN[C@H](CC(C)C)C(=O)N[C@H]1C(=O)N[C@@H](CC(N)=O)C(=O)N[C@H]2C(=O)N[C@H]3C(=O)N[C@H](C(=O)N[C@H](C(=O)O)c4cc(O)cc(O)c4-c4cc3ccc4O)[C@H](O)c3ccc(c(Cl)c3)Oc3cc2cc(c3O[C@@H]2O[C@H](CO)[C@@H](O)[C@H](O)[C@H]2O[C@H]2C[C@](C)(N)[C@H](O)[C@H](C)O2)Oc2ccc(cc2Cl)[C@H]1O [Vancomycin]
Conditions	Bliss interaction score
[1]	0.0534
[2]	0.0308
[3]	0.142
[4]	0.0253

fitness, [5]
Conditions	first compound 1.285 µg/mL	first compound 2 µg/mL	first compound 2.57 µg/mL	first compound 4 µg/mL	first compound 8 µg/mL
partner 0.03125 µg/mL	–	0.926	–	0.959	0.892
partner 0.0625 µg/mL	–	0.882	–	0.959	0.894
partner 0.125 µg/mL	0.969	0.748	0.973	0.851	–
partner 0.25 µg/mL	0.611	–	0.653	–	–
partner 0.5 µg/mL	0.0954	–	0.0768	–	–

[5], first compound 5.14 µg/mL, one replicate
Conditions	fitness
partner 0.125 µg/mL	0.965
partner 0.25 µg/mL	0.446
partner 0.5 µg/mL	0.118

O=C1CN(/N=C/c2ccc([N+](=O)[O-])o2)C(=O)N1 [Nitrofurantoin] + CO[C@H]1/C=C/O[C@@]2(C)Oc3c(C)c(O)c4c(O)c(c(/C=N/N5CCN(C)CC5)c(O)c4c3C2=O)NC(=O)/C(C)=C\C=C\[C@H](C)[C@H](O)[C@@H](C)[C@@H](O)[C@@H](C)[C@H](OC(C)=O)[C@@H]1C [Rifampicin]
Conditions	Bliss interaction score
[1]	-0.0316
[2]	-0.0448
[3]	-0.117
[4]	-0.0228

fitness, [5]
Conditions	first compound 1.285 µg/mL	first compound 2 µg/mL	first compound 2.57 µg/mL	first compound 4 µg/mL	first compound 8 µg/mL
partner 0.05 µg/mL	0.825	0.789	0.798	0.781	0.668
partner 0.1 µg/mL	0.372	–	0.353	–	0.351
partner 0.2 µg/mL	0.129	–	0.166	–	–

fitness, [5], one replicate
Conditions	first compound 2 µg/mL	first compound 4 µg/mL	first compound 5.14 µg/mL	first compound 8 µg/mL
partner 0.025 µg/mL	0.873	0.85	–	0.782
partner 0.05 µg/mL	–	–	0.806	–
partner 0.1 µg/mL	–	–	0.369	–
partner 0.2 µg/mL	0	0	0.171	0

O=C1CN(/N=C/c2ccc([N+](=O)[O-])o2)C(=O)N1 [Nitrofurantoin] + COc1ccc(C[C@H](N)C(=O)N[C@H]2[C@@H](O)[C@H](n3cnc4c(N(C)C)ncnc43)O[C@@H]2CO)cc1 [Puromycin]
Conditions	Bliss interaction score
[1]	0.098
[2]	0.1
[3]	-0.135
[4]	0.0289

fitness, [5]
Conditions	partner 1 µg/mL	partner 2 µg/mL	partner 4 µg/mL
first compound 1.285 µg/mL	0.989	0.966	0.808
first compound 2.57 µg/mL	0.947	0.901	0.742

fitness, [5], one replicate
Conditions	first compound 2 µg/mL	first compound 4 µg/mL	first compound 5.14 µg/mL	first compound 8 µg/mL
partner 1 µg/mL	0.901	0.899	0.905	0.652
partner 2 µg/mL	0.821	0.915	0.88	0.711
partner 4 µg/mL	0.757	0.767	0.592	0.38

O=C1CN(/N=C/c2ccc([N+](=O)[O-])o2)C(=O)N1 [Nitrofurantoin] + C[n+]1ccc(-c2cc[n+](C)cc2)cc1 [Paraquat]
Conditions	Bliss interaction score
[1]	0.0529
[2]	0.0514
[3]	0.0462
[4]	0.0244

fitness, [5]
Conditions	partner 1.5 µg/mL	partner 3 µg/mL	partner 6 µg/mL
first compound 1.285 µg/mL	0.949	0.959	0.941
first compound 2.57 µg/mL	0.961	0.953	0.945

fitness, [5], one replicate
Conditions	first compound 2 µg/mL	first compound 4 µg/mL	first compound 5.14 µg/mL	first compound 8 µg/mL
partner 1.5 µg/mL	0.988	0.983	0.909	0.859
partner 3 µg/mL	0.965	0.968	0.927	0.871
partner 6 µg/mL	0.981	≥ 1	0.894	0.909

O=C1CN(/N=C/c2ccc([N+](=O)[O-])o2)C(=O)N1 [Nitrofurantoin] + Cc1cc(NS(=O)(=O)c2ccc(N)cc2)no1 [Sulfamethoxazol]
Conditions	Bliss interaction score
[1]	0.0591
[2]	0.0955
[3]	0.049
[4]	-0.0311

fitness, [5]
Conditions	partner 1 µg/mL	partner 2 µg/mL	partner 4 µg/mL
first compound 1.285 µg/mL	0.952	0.957	0.91
first compound 2.57 µg/mL	0.942	0.948	0.944

fitness, [5], one replicate
Conditions	first compound 2 µg/mL	first compound 4 µg/mL	first compound 5.14 µg/mL	first compound 8 µg/mL
partner 1 µg/mL	0.937	0.944	0.92	0.805
partner 2 µg/mL	0.929	0.934	0.929	0.833
partner 4 µg/mL	0.842	0.859	0.927	0.768

O=C1CN(/N=C/c2ccc([N+](=O)[O-])o2)C(=O)N1 [Nitrofurantoin] + Cc1onc(-c2ccccc2)c1C(=O)N[C@@H]1C(=O)N2[C@@H]1SC(C)(C)[C@@H]2C(=O)O [Oxacillin]
Conditions	Bliss interaction score
[1]	0.0474
[2]	0.0329
[3]	0.162
[4]	-0.0421

fitness, [5]
Conditions	first compound 1.285 µg/mL	first compound 2 µg/mL	first compound 2.57 µg/mL	first compound 4 µg/mL	first compound 8 µg/mL
partner 0.01 µg/mL	0.955	0.928	0.958	0.932	0.802
partner 0.02 µg/mL	0.959	0.873	0.944	0.864	0.798
partner 0.04 µg/mL	0.761	0.475	0.754	0.531	0.53

[5], first compound 5.14 µg/mL, one replicate
Conditions	fitness
partner 0.01 µg/mL	0.955
partner 0.02 µg/mL	0.967
partner 0.04 µg/mL	0.795

O=C1CN(/N=C/c2ccc([N+](=O)[O-])o2)C(=O)N1 [Nitrofurantoin] + Cn1nnc(-c2ccc(-c3ccc(N4C[C@H](CO)OC4=O)cc3F)cn2)n1 [Tedizolid]
Conditions	Bliss interaction score
[1]	-0.0562
[2]	-0.0546
[3]	-0.141
[4]	-0.0543

fitness, [5]
Conditions	first compound 1.285 µg/mL	first compound 2 µg/mL	first compound 2.57 µg/mL	first compound 4 µg/mL	first compound 8 µg/mL
partner 0.03125 µg/mL	–	0.948	–	0.957	0.951
partner 0.0625 µg/mL	–	0.893	–	0.915	0.859
partner 0.125 µg/mL	0.805	0.767	0.812	0.775	0.771
partner 0.25 µg/mL	0.724	–	0.676	–	–
partner 0.5 µg/mL	0.258	–	0.217	–	–

[5], first compound 5.14 µg/mL, one replicate
Conditions	fitness
partner 0.125 µg/mL	0.791
partner 0.25 µg/mL	0.589
partner 0.5 µg/mL	0.18

C/C(=C\C(=O)OCCCCCCCCC(=O)O)C[C@@H]1OC[C@H](C[C@@H]2O[C@H]2[C@@H](C)[C@H](C)O)[C@@H](O)[C@H]1O [Pseudomonic acid] + CO[C@H]1/C=C/O[C@@]2(C)Oc3c(C)c(O)c4c(O)c(c(/C=N/N5CCN(C)CC5)c(O)c4c3C2=O)NC(=O)/C(C)=C\C=C\[C@H](C)[C@H](O)[C@@H](C)[C@@H](O)[C@@H](C)[C@H](OC(C)=O)[C@@H]1C [Rifampicin]
Conditions	Bliss interaction score
[1]	-0.0134
[2]	0.0416
[3]	0.14
[4]	0.0229

[5], partner 0.025 µg/mL, one replicate
Conditions	fitness
first compound 0.03 µg/mL	0.872
first compound 0.06 µg/mL	0.79
first compound 0.12 µg/mL	0.742

[5], first compound 0.12 µg/mL
Conditions	fitness
partner 0.05 µg/mL	0.608
partner 0.2 µg/mL	0.136
